# Results as given in US4818761A, “2-(4-pyridylaminomethyl)-benzimidazole derivatives having antiviral activity” (priority 1986, dated 1989).
# Tested on: coxsackievirus type B4 (CB4)
# Assay: Inhibition of CB4 plaque formation in LLC-MK2 cells
# Type: cell-based
# Conditions: Coxsackievirus; plaque reduction, LLC-MK2 cells, 37° C.
row,Compound,IC50 [µg/mL]
1,CCCc1ccc2[nH]c(CNc3ccncc3)nc2c1 [V],> 100
2,Cc1cc2nc(CNc3ccncc3)[nH]c2cc1F [XXX],> 50

# Tested on: rhinovirus type 14 (HRV14)
# Assay: Inhibition of HRV14 plaque formation in HeLa cells
# Type: cell-based
# Conditions: Enterovirus, HRV14; plaque reduction, HeLa cells, 33° C.
row,Compound,IC50 [µg/mL]
1,OCCCn1c(CNc2ccncc2)nc2ccccc21 [LI],> 100
2,Cc1cc2nc(CNc3ccncc3)[nH]c2cc1F [XXX],8.6
3,c1ccc2c(c1)nc(CNc1ccncc1)n2C1CCCC1 [XVII],> 50
4,"c1ccc(Cn2c(CNc3ccncc3)nc3ccccc32)cc1 [XXIV, 1-benzyl-2-(4-pyridylaminomethyl)benzimidazole]",> 50

# Tested on: not listed separately
# Assay: in vitro
# Conditions: monkey, llc-mk2 cells
row,Compound,CC50 [µg/mL]
1,Cc1ccc2c(c1)nc(CNc1ccncc1)n2C [XXXVI],> 100
2,CCCc1ccc2[nH]c(CNc3ccncc3)nc2c1 [V],354
3,CCCCc1ccc2[nH]c(CNc3ccncc3)nc2c1 [VII],56.2
4,OCCCCn1c(CNc2ccncc2)nc2ccccc21 [LII],> 100
5,OCCCn1c(CNc2ccncc2)nc2ccccc21 [LI],> 1000
6,c1ccc(-c2ccc3[nH]c(CNc4ccncc4)nc3c2)cc1 [IX],> 100
7,Clc1ccc(-n2c(CNc3ccncc3)nc3ccccc32)cc1Cl [LXIX],> 100
8,CCc1ccc2c(c1)nc(CNc1ccncc1)n2CC [XLI],> 100
9,Cc1cc2nc(CNc3ccncc3)[nH]c2cc1F [XXX],> 100
10,"CCn1c(CNc2ccncc2)nc2cc(C)ccc21 [XL, 1-ethyl-2-(4-pyridylaminomethyl)-5-methyl benzimidazole]",> 100
11,COc1ccc(-n2c(CNc3ccncc3)nc3ccccc32)cc1 [LXVIII],> 100
12,Cc1ccccc1-n1c(CNc2ccncc2)nc2ccccc21 [LXII],> 100
13,Cc1cccc(-n2c(CNc3ccncc3)nc3ccccc32)c1 [LXIII],> 100
14,Clc1ccc2c(c1)nc(CNc1ccncc1)n2-c1ccccc1 [XLVI],> 100
15,c1ccc2c(c1)nc(CNc1ccncc1)n2C1CCCC1 [XVII],1410
16,CC(C)(C)c1ccc2[nH]c(CNc3ccncc3)nc2c1 [VIII],> 100
17,Ic1ccc(-n2c(CNc3ccncc3)nc3ccccc32)cc1 [LXI],> 100
18,c1ccc(CCCn2c(CNc3ccncc3)nc3ccccc32)cc1 [LVI],> 100
19,"c1ccc(Cn2c(CNc3ccncc3)nc3ccccc32)cc1 [XXIV, 1-benzyl-2-(4-pyridylaminomethyl)benzimidazole]",> 2000
20,Cc1cc(C)c(-n2c(CNc3ccncc3)nc3ccccc32)c(C)c1 [LXXII],> 100
21,FC(F)(F)c1ccc(-n2c(CNc3ccncc3)nc3ccccc32)cc1 [LXIV],> 100
22,COc1cc2nc(CNc3ccncc3)[nH]c2cc1OC [XXXIV],> 100

# Tested on: enterovirus type 70 (EV70)
# Assay: Inhibition of EV70 plaque formation in LLC-MK2 cells
# Type: cell-based
# Conditions: CI = CD50 (LLC-MK2)/IC50 (plaque)
row,Compound,CI EV70 (C)/(A)
1,CCCc1ccc2[nH]c(CNc3ccncc3)nc2c1 [V],93
2,CCCCc1ccc2[nH]c(CNc3ccncc3)nc2c1 [VII],3
3,Cc1cc2nc(CNc3ccncc3)[nH]c2cc1F [XXX],> 8
4,Cc1cccc(-n2c(CNc3ccncc3)nc3ccccc32)c1 [LXIII],> 18

# Same assay, conditions: Enterovirus D; plaque reduction, LLC-MK2 cells, 33° C.
row,Compound,IC50 [µg/mL]
1,CCCc1ccc2[nH]c(CNc3ccncc3)nc2c1 [V],3.8
2,CCCCc1ccc2[nH]c(CNc3ccncc3)nc2c1 [VII],17.8
3,Cc1cc2nc(CNc3ccncc3)[nH]c2cc1F [XXX],12
4,Cc1cccc(-n2c(CNc3ccncc3)nc3ccccc32)c1 [LXIII],5.6

# Tested on: enterovirus type 70 (EV70)
# Assay: Inhibition of EV70 cytopathogenic effect (CPE) in LLC-MK2 cells
# Type: cell-based
# Conditions: CI = CD50 (LLC-MK2)/IC50 (virus CPE)
row,Compound,CI EV70 (C)/(A)
1,Clc1ccc(-n2c(CNc3ccncc3)nc3ccccc32)cc1Cl [LXIX],> 18
2,Clc1ccc2c(c1)nc(CNc1ccncc1)n2-c1ccccc1 [XLVI],> 8

# Same assay, conditions: Enterovirus D; * Virus CPE inhibition assay, LLC-MK2 cells, 33° C.
row,Compound,IC50 [µg/mL]
1,Cc1ccc2c(c1)nc(CNc1ccncc1)n2C [XXXVI],> 100
2,OCCCCn1c(CNc2ccncc2)nc2ccccc21 [LII],> 100
3,OCCCn1c(CNc2ccncc2)nc2ccccc21 [LI],> 100
4,c1ccc(-c2ccc3[nH]c(CNc4ccncc4)nc3c2)cc1 [IX],> 100
5,Clc1ccc(-n2c(CNc3ccncc3)nc3ccccc32)cc1Cl [LXIX],5.6
6,CCc1ccc2c(c1)nc(CNc1ccncc1)n2CC [XLI],> 100
7,"CCn1c(CNc2ccncc2)nc2cc(C)ccc21 [XL, 1-ethyl-2-(4-pyridylaminomethyl)-5-methyl benzimidazole]",> 100
8,COc1ccc(-n2c(CNc3ccncc3)nc3ccccc32)cc1 [LXVIII],> 100
9,Cc1ccccc1-n1c(CNc2ccncc2)nc2ccccc21 [LXII],> 100
10,Clc1ccc2c(c1)nc(CNc1ccncc1)n2-c1ccccc1 [XLVI],13.2
11,c1ccc2c(c1)nc(CNc1ccncc1)n2C1CCCC1 [XVII],> 100
12,CC(C)(C)c1ccc2[nH]c(CNc3ccncc3)nc2c1 [VIII],> 100
13,Ic1ccc(-n2c(CNc3ccncc3)nc3ccccc32)cc1 [LXI],> 100
14,c1ccc(CCCn2c(CNc3ccncc3)nc3ccccc32)cc1 [LVI],> 100
15,COc1ccccc1-n1c(CNc2ccncc2)nc2ccccc21 [LXVII],> 100
16,"c1ccc(Cn2c(CNc3ccncc3)nc3ccccc32)cc1 [XXIV, 1-benzyl-2-(4-pyridylaminomethyl)benzimidazole]",> 100
17,Cc1cc(C)c(-n2c(CNc3ccncc3)nc3ccccc32)c(C)c1 [LXXII],> 100
18,FC(F)(F)c1ccc(-n2c(CNc3ccncc3)nc3ccccc32)cc1 [LXIV],> 100
19,COc1cc2nc(CNc3ccncc3)[nH]c2cc1OC [XXXIV],> 100

# Tested on: coxsackievirus type B4 (CB4)
# Assay: Inhibition of CB4 cytopathogenic effect (CPE) in LLC-MK2 cells
# Type: cell-based
# Conditions: CI = CD50 (LLC-MK2)/IC50 (virus CPE)
row,Compound,CI CB4 (C)/(A)
1,OCCCCn1c(CNc2ccncc2)nc2ccccc21 [LII],> 6
2,OCCCn1c(CNc2ccncc2)nc2ccccc21 [LI],18
3,Clc1ccc(-n2c(CNc3ccncc3)nc3ccccc32)cc1Cl [LXIX],> 18
4,"CCn1c(CNc2ccncc2)nc2cc(C)ccc21 [XL, 1-ethyl-2-(4-pyridylaminomethyl)-5-methyl benzimidazole]",> 2
5,COc1ccc(-n2c(CNc3ccncc3)nc3ccccc32)cc1 [LXVIII],> 18
6,Cc1cccc(-n2c(CNc3ccncc3)nc3ccccc32)c1 [LXIII],> 18
7,Clc1ccc2c(c1)nc(CNc1ccncc1)n2-c1ccccc1 [XLVI],> 56
8,c1ccc2c(c1)nc(CNc1ccncc1)n2C1CCCC1 [XVII],> 253
9,"c1ccc(Cn2c(CNc3ccncc3)nc3ccccc32)cc1 [XXIV, 1-benzyl-2-(4-pyridylaminomethyl)benzimidazole]",> 36
10,FC(F)(F)c1ccc(-n2c(CNc3ccncc3)nc3ccccc32)cc1 [LXIV],> 18

# Same assay, conditions: Coxsackievirus; * Virus CPE inhibition assay, LLC-MK2 cells, 37° C.
row,Compound,IC50 [µg/mL]
1,OCCCCn1c(CNc2ccncc2)nc2ccccc21 [LII],17.8
2,OCCCn1c(CNc2ccncc2)nc2ccccc21 [LI],56.2
3,Clc1ccc(-n2c(CNc3ccncc3)nc3ccccc32)cc1Cl [LXIX],5.6
4,CCc1ccc2c(c1)nc(CNc1ccncc1)n2CC [XLI],> 100
5,"CCn1c(CNc2ccncc2)nc2cc(C)ccc21 [XL, 1-ethyl-2-(4-pyridylaminomethyl)-5-methyl benzimidazole]",56.2
6,COc1ccc(-n2c(CNc3ccncc3)nc3ccccc32)cc1 [LXVIII],5.6
7,Cc1ccccc1-n1c(CNc2ccncc2)nc2ccccc21 [LXII],> 100
8,Cc1cccc(-n2c(CNc3ccncc3)nc3ccccc32)c1 [LXIII],5.6
9,Clc1ccc2c(c1)nc(CNc1ccncc1)n2-c1ccccc1 [XLVI],1.8
10,c1ccc2c(c1)nc(CNc1ccncc1)n2C1CCCC1 [XVII],5.6
11,Ic1ccc(-n2c(CNc3ccncc3)nc3ccccc32)cc1 [LXI],> 100
12,c1ccc(CCCn2c(CNc3ccncc3)nc3ccccc32)cc1 [LVI],> 100
13,COc1ccccc1-n1c(CNc2ccncc2)nc2ccccc21 [LXVII],> 100
14,"c1ccc(Cn2c(CNc3ccncc3)nc3ccccc32)cc1 [XXIV, 1-benzyl-2-(4-pyridylaminomethyl)benzimidazole]",56.2
15,Cc1cc(C)c(-n2c(CNc3ccncc3)nc3ccccc32)c(C)c1 [LXXII],> 100
16,FC(F)(F)c1ccc(-n2c(CNc3ccncc3)nc3ccccc32)cc1 [LXIV],5.6

# Tested on: poliovirus type 2 (Polio2)
# Assay: microbe, parasite or virus in culture
# Type: cell-based
# Conditions: Enterovirus C, LLC-MK2, read-out: IC50 Polio2
row,Compound,IC50 [µg/mL]
1,CCCc1ccc2[nH]c(CNc3ccncc3)nc2c1 [V],> 100
2,Cc1cc2nc(CNc3ccncc3)[nH]c2cc1F [XXX],> 100
